Patent publication US20070259354A1, “OPTIMIZED TRPM8 NUCLEIC ACID SEQUENCES AND THEIR USE IN CELL BASED ASSAYS AND TEST KITS TO IDENTIFY TRPM8 MODULATORS” (Senomyx, Inc., priority 2005, published 2007)
Like-named read-outs stand apart in the source and are kept apart here.

Tests used:
[1] = Human taste test, cooling intensity; type: in vivo; settings: five human panelists, two trials, Tukey's HSD 5% risk level
Protocol: In this experiment the cooling effect of a putative coolant, SID 391254, identified using the subject assays was analyzed in human taste tests. Particularly, the cooling intensity for three test samples was tested in five human volunteer panelists in two trials. […] The tests were conducted in booths with the data recorded using Compusense software. Additionally, these experiments further included the administration of WS-3, a known coolant (positive control).
For both samples containing the known or the putative cooling compound (WS-3 and SID 391254 respectively), these compounds were contained in low sodium buffer (LSB) and 0.1% ethanol.
This experiment compared the cooling effect of another putative coolant compound (SID 10135651) identified using the described assays. […] As with the prior example, significant differences between the known and putative coolant compound vis-à-vis the control were calculated using Tukey's HSD (5% risk level). […] These tests were again conducted in booths with the data recorded using Compusense software.
The coolant effect of another putative cooling compound (SID 7292725) identified using the subject screening assays was tested in human taste tests. Again cooling intensity scores were determined based on results in 5 human taste panelists in two trials. Significant differences were again calculated using Tukey's HSD (5% risk level).

rat TRPM8 [2] = target: T1, rat TRPM8 (Rattus norvegicus, UniProt Q8R455); test: Voltage clamp electrophysiology in Xenopus oocytes expressing rat TRPM8 (OpusXpress); type: cell-based; settings: for peak agonist-induced currents: 4-6 independent oocytes; for peak agonist-induced currents / desensitization of agonist-induced currents: one day post-injection; for desensitization of agonist-induced currents: continued presence of agonist; for specific activation of rat TRPM8 expressed in oocytes: no responses in uninjected control oocytes
T1 construct: In the assays exemplified herein, cells which express the full-length TRPM8 polypeptide are used in high throughput assays; expressed in transfected cells; host or cells: Xenopus oocytes microinjected with rat TRPM8 cRNA
Protocol: Xenopus oocytes are microinjected with a TRPM8 nucleic acid sequence according to the invention.
The microinjected oocytes are voltage-clamped at around 60 mV using the OpusXpress 600A one day post-injection and treated with either buffer (control) or a potential or known TRPM8 modulator contained in same buffer at a fixed concentration or over a range of different concentrations (dose-escalation).
The current is measured for said buffer-treated or putative TRPM8 modulator-treated oocytes over a specific time period. Additionally, the current response is measured for oocytes treated with the same buffer which are not injected with a TRPM8 nucleic acid sequence (negative control).
The current response for said oocytes is compared in order to determine the effect (if any) of said potential TRPM8 modulator compound on TRPM8 activity and whether said effect is dose-specific.
In this experiment an electrophysiological assay was conducted using oocytes that express rat TRPM8. Specifically, oocytes were microinjected with 10 ng rat TRPM8 cRNA and were voltage-clamped at ˜60 mV using the OpusXpress 600A one day post-injection and treated with buffer and menthol (left traces) or icilin (right traces).
Oocytes were microinjected with 10 ng rat TRPM8 […] and voltage-clamped at ˜60 mV using the OpusXpress 6000A one day post-injection and then treated with the compounds shown in the FIG. 6. In the Figure, peak agonist-induced currents are summarized for 4-6 independent oocytes.
In these experiments, oocytes were again injected with 2 ng rat TRPM8 cRNA (as shown in left panel of FIG. 7) or uninjected (right panel) and currents were measured from ˜80 mV to 100 mV (in 20 mV increments) in the presence of buffer (control; green curves) or 100 μM menthol (red curves) four days post-injection. The blue curves in FIG. 7 depict menthol-specific currents obtained by subtracting control (green) from menthol (red) curves.
In this experiment, oocytes were again microinjected with 10 ng rat TRPM8 cRNA, voltage-clamped at ˜60 mV and currents measured 2-3 days post-injection.

rat TRPM8 [3] = target: T1, rat TRPM8; test: Fluorimetric calcium imaging (FLIPR), HEK293 cells transiently transfected with rat TRPM8; type: cell-based; settings: chilled stimulus compared with warmer stimulus
Protocol: HEK-293 cells (about 50-70% confluency) contained in 10 cm dishes are transfected with 5 μg of TRPM8 DNA and pcDNA3 and 2 μg of RFP plasmids using TransH293.
After 24 hours, the cells are split into 384-well plates at ˜50,000 cells/well.
At 48 hours post-transfection the cells are loaded with 4 μM Fluo-3-AM 3 AM in HBSS for 30 minutes at 37° C.
The cells are then washed twice within HBSS containing 2.5 mM Probenicid and returned to 37° C. for 15 minutes.
Compound plates are prepared in HBSS at twice the final concentration and kept at 37° C. to insure that rTRPM8 is not activated by a decrease in ambient temperature during stimulation (TRPM8 is activated by temperatures<22° C.).
HEK293 cells are transfected with a plasmid encoding the rat TRPM8 cDNA (in pcDNA3.1) and are seeded into 384-well plates. 48 hours later, cells are loaded with Fluo-3-AM. Cells are then stimulated with various stimuli as shown in FIG. 2 and fluorescence intensity in each well measured using a Fluorimetric Imaging Plate Reader (FLIPR). […]
HEK293 cells transfected with a plasmid encoding rat TRPM8 cDNA contained in pcDNA3.1 were seeded into 384-well plates. […] Cells were then stimulated with the stimuli shown in FIG. 3 and fluorescence intensity in each well measured using a Fluorimetric Imaging Plate Reader (FLIPR). […]

rat TRPM8 [4] = target: T1, rat TRPM8; settings: 22-24° C., McKemy et al. Nature 416:52-58 (2002); read-out: reported EC50 in oocytes; cited from earlier work

T1 sequence (Q8R455 whole entry): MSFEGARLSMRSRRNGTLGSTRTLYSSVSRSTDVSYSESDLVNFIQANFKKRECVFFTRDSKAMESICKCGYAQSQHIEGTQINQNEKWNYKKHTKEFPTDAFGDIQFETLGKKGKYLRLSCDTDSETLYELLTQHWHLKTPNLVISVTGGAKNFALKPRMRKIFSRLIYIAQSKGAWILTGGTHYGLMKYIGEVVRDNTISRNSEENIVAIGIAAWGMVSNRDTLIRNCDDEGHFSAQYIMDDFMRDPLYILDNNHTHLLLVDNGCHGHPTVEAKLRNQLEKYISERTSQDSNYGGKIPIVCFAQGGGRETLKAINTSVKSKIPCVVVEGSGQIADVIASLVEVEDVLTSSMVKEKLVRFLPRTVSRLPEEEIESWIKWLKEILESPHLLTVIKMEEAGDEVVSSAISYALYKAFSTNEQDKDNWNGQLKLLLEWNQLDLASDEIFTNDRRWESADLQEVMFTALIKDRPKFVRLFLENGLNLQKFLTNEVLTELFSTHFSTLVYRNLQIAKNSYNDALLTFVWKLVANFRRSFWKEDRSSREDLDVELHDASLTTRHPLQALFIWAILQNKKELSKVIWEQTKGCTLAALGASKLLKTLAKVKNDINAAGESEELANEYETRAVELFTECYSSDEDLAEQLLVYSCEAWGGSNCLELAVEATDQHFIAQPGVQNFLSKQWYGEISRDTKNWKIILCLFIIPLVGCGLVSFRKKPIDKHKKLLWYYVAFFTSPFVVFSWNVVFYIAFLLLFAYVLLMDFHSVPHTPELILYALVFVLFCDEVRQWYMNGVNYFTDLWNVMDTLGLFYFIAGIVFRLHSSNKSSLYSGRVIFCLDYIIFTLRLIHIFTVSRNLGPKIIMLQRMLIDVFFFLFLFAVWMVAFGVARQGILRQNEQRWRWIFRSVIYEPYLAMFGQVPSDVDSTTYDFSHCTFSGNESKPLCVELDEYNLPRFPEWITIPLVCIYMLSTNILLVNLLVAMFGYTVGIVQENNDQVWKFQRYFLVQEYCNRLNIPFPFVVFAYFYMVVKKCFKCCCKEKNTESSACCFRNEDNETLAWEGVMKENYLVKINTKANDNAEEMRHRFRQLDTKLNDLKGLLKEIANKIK

| SMILES | peak agonist-induced currents (rat TRPM8 [2]) | cooling intensity compared with negative control (LSB and 0.1% ethanol) [1] | desensitization of agonist-induced currents (rat TRPM8 [2]) | specific activation of rat TRPM8 expressed in oocytes (rat TRPM8 [2]) | potency of chilled versus warmer agent at activating TRPM8 (rat TRPM8 [3]) | EC50 (rat TRPM8 [4]) | current/voltage (I/V) curve of menthol-specific currents (rat TRPM8 [2]; 100 μM menthol, 2 ng cRNA, four days post-injection) | EC50 (rat TRPM8 [2]; oocytes, 10 ng rat TRPM8 cRNA, 19.5° C.) |
| --- | --- | --- | --- | --- | --- | --- | --- | --- |
| CCNC(=O)C1CC(C)CCC1C(C)C (centres unmarked) [WS-3] |  | substantially higher cooling intensity |  |  |  |  |  |  |
| CC12CCC(CC1)C(C)(C)O2 [eucalyptol] | small peak currents |  |  |  |  |  |  |  |
| CC1CCC(C(C)C)C(O)C1 (centres unmarked) [menthol] | large peak currents |  | partially-desensitize | specifically activate | more potent | 67 µM | outward rectification | 29.6 µM |

More lines, main results first:

| peak agonist-induced currents (rat TRPM8 [2]) | SMILES | cooling intensity compared with negative control (LSB and 0.1% ethanol) [1] | desensitization of agonist-induced currents (rat TRPM8 [2]) | specific activation of rat TRPM8 expressed in oocytes (rat TRPM8 [2]) | potency of chilled versus warmer agent at activating TRPM8 (rat TRPM8 [3]) | EC50 (rat TRPM8 [4]) | current/voltage (I/V) curve of menthol-specific currents (rat TRPM8 [2]; 100 μM menthol, 2 ng cRNA, four days post-injection) | EC50 (rat TRPM8 [2]; oocytes, 10 ng rat TRPM8 cRNA, 19.5° C.) |
| --- | --- | --- | --- | --- | --- | --- | --- | --- |
| large peak currents | O=C1NC(c2cccc([N+](=O)[O-])c2)=CCN1c1ccccc1O [icilin] |  | completely desensitize | specifically activate | more potent |  |  |  |
| small peak currents | C [methane] |  |  |  |  |  |  |  |
